This note sets out measurements from patent US20070149481A1, “N,n-bridged, nitrogen-substituted carbacyclic indolocarbazoles as protein kinase inhibitors” (priority 2002, published 2007).

Where “and” joins values, the source holds several entries; their conditions need not be identical. Equal values may be shown once. Some results are limits rather than exact numbers.

One data set has as its target His tagged ERK2 (Homo sapiens, UniProt P28482). The data set is described as follows: Extracellular signal Regulated Kinase 2 inhibition assay (ERK2), radioactive filtermat format. The conditions noted are these: 10 μM compound. In kind it is biochemical. The protocol:
(§1) The ERK2 kinase activity assay utilizes a radioactivity-based format in a 96-well PCR plate with radioactive readout. The ERK2 activity was assayed in a 25 μL assay mixture containing 25 mM HEPES (pH 7.0), 250 μM ATP, 1 mM MgCl2, 1 mM DTT, 2% DMSO, 150 ng/mL Myelin Basic Protein (MBP, Sigma M-1891), and 13.6 ng/mL His tagged ERK2 (specific activity=38.1 nmol/min*mg). Compounds were screened for inhibition of the ERK2 kinase activity at a concentration of 10 μM. The kinase reaction was allowed to proceed at 37° C. for 30 minutes, then reaction was stopped by the addition of 5 μl of 0.5M EDTA (pH 8). 15 μL of each solution were then spotted onto the corresponding square of a filtermat (8×12 glassfibre mat 90×120 mm, PE-Wallac 1450-421). The filtermat was allowed to dry and washed once with 10% TCA, 2% PPA, 500 mM NaCl each for 30 minutes at rt. Two further washings in 10% TCA and 2% PPA for 30 minutes were performed, then a final 30 minute wash in 99% EtOH at rt was done and the filtermat was air dried. The dry filtermat was then placed in a sample bag with a Meltilex sheet (Melt-on scintillator sheets 73×109 mm, PE-Wallac 1450-441 for filtermat A) over the filtermat. The bag was trimmed to fit into the microplate heatsealer (PE-Wallac 1495-021). The heatsealer is used to melt the Meltilex on the filtermat. The bag containing the filtermat and the melted Meltilex was then placed into a filter cassette and counted using the Microbeta Jet Scintillation and Luminescence Counter PE-Wallac 1450.

For data set [1], the target named is T1, PKA (catalytic subunit, bovine heart) (Bos taurus, UniProt P00517).
T1 construct: PKA (catalytic subunit, bovine heart, Calbiochem 539486); purchased Calbiochem 539486; host or cells: bovine heart (tissue-derived)
The data set is described as follows: Protein Kinase A inhibition assay (PKA). The class given is biochemical. The conditions noted are these: 10 μM compound. As to the method:
as §1
The PKA kinase activity assay utilizes a radioactivity-based format in a 96-well PCR plate with radioactive readout. The PKA activity was assayed in a 25 μL assay mixture containing 25 mM HEPES (pH 7.0), 250 μM ATP, 10 mM MgCl2, 1 mM DTT, 1 mM EDTA (pH 8). 2% DMSO. 250 ng/mL Histone H2B (Roche 223 514), and 2 ng/mL PKA (catalytic subunit, bovine heart, Calbiochem 539486, specific activity=1170 pmol/min*μg). Compounds were screened for inhibition of the PKA kinase activity at a concentration of 10 μM. The kinase reaction was allowed to proceed at 37° C. for 30 minutes, then the reaction was stopped by addition of 5 μL of 0.5M EDTA (pH 8). The remainder of the protocol is identical to the one reported for ERK2.

The next data set has as its system PKC (rat brain). The data set is described as follows: Protein Kinase C inhibition assay (PKC). To be noted: 10 μM compound. The class given is biochemical. As to the method: as §1
The PKC kinase activity assay utilizes a radioactivity-based format in a 96-well PCR plate with radioactive readout. The PKC activity was assayed in a 25 μL assay mixture containing 25 mM HEPES (pH 7.0), 250 μM ATP, 10 mM MgCl2, 1 mM DTT, 1 mM EDTA (pH 8), 2 mM CaCl2, 2% DMSO, 250 ng/mL Histone H1 (Roche 1 004 875), and 165 ng/mL PKC (rat brain, Calbiochem 539494, specific activity=1600 nmol/min*mg). Compounds were screened for inhibition of the PKC kinase activity at a concentration of 10 μM. The kinase reaction was allowed to proceed at 37° C. for 30 minutes, then the reaction was stopped by addition of 5 μL of 0.5M EDTA (pH 8). The remainder of the protocol is identical to the one reported for ERK2.

A further data set concerns the target T2, GSK3β (Homo sapiens, UniProt P49841).
T2 construct: purchased Upstate Discovery
Nature of the data set: Glycogen Synthase Kinase 3β inhibition assay (GSK3β). In kind it is biochemical. To be noted: 10 μM compound. As to the method: The GSK3β kinase activity assay utilizes a radioactivity-based format in a 96-well PCR plate with radioactive readout. The GSK3 β activity was assayed in a 25 μL assay mixture containing 8 mM HEPES (pH 7.0), 250 μM ATP, 0.2 mM EDTA (pH 8), 2% DMSO, 250 ng/mL Myelin Basic Protein (MBP, Sigma M-1891), and 12 ng/mL GSK3β (Upstate Discovery, specific activity=607 nmol/min*GS2 peptide, concentration of 6.05 mg/mL). Compounds were screened for inhibition of the GSK3β kinase activity at a concentration of 10 μM. The kinase reaction was allowed to proceed at 37° C. for 30 minutes, then the reaction was stopped by addition of 5 μL of 0.5M EDTA (pH 8).

The nature of data set [2]: Solubility of free base NAD0241 and its hydrochloride salt in 99/1 water/DMSO. The class given is physicochemical. The conditions noted are these: 18 hours equilibration at room temperature, duplicate experiments. The protocol: Stock solutions of NAD0241 (100 mM) and of its hydrochloride salt ([…]) in DMSO (UV-grade) were prepared freshly before the experiment and further diluted to a final concentration of 10 mM. These stock solutions in 100% DMSO were diluted with water (UV grade) to provide five 99/1 water/DMSO samples with varying concentrations of the compound (1000, 500, 100, 50 and 10 μM).
Each sample was thoroughly mixed by rigorous vortexing (30 seconds) followed by equilibration for 18 hours at room temperature. A […] for each sample was transferred into 1.5 mL polypropylene tubes and centrifuged for 30 minutes at room temperature at 16000 g in a fixed angle tabletop centrifuge (Heraeus Biofuge pico equipped with #3325 rotor). The supernatant was pipetted into a quartz glass cuvette and UV-absorption (322 nm) was measured in a UV spectrophotometer (Varian Cary 50). Each experiment was run in duplicate.

T2 sequence (P49841 whole entry, species assumed): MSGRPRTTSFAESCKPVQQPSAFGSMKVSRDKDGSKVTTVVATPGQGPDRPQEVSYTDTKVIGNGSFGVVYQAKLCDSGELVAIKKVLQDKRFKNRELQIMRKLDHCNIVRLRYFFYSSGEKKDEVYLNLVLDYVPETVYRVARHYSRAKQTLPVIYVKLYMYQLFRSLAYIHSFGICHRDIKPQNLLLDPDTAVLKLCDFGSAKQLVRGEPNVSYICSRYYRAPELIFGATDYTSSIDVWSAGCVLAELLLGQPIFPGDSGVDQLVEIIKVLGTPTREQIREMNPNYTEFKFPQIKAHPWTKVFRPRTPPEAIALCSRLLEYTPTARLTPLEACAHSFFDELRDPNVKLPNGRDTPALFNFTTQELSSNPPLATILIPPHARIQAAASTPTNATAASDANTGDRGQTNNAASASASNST
His tagged ERK2, sequence (P28482 whole entry): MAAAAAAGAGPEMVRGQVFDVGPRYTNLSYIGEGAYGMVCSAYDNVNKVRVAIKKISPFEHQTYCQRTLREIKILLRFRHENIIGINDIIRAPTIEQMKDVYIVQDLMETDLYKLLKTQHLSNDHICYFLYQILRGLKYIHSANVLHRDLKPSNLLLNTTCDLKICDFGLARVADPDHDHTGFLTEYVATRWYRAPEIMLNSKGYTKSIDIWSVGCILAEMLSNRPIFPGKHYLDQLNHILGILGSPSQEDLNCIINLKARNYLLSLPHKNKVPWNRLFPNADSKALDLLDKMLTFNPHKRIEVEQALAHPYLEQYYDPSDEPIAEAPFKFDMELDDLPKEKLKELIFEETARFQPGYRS

On to `COc1ccc(CN2C(=O)c3c(c4c5ccccc5n5c4c4c3c3ccccc3n4C3CC5[C@](N)(C#N)C3)C2=O)cc1` (stereo partly shown) [Compound 28], for which the inhibition (usually the percentage by which the read-out fell short of the control) at 10 µM at His tagged ERK2 was 48.7%; in data set [1] it was less than 10%; against GSK3β, 25.6%. In addition, in the data set on PKC (rat brain), the “% Inhibition PKC” value was determined as 28.19%.

With `O=C1NC(=O)c2c1c1c3ccccc3n3c1c1c2c2ccccc2n1C1CC3CC1N1CCCCC1` (stereo not shown) [Compound 29], on His tagged ERK2, the “% Inhibition ERK2” value is recorded as 56.44%. Besides, the “% Inhibition PKA” value in data set [1] is 18.38%. In addition, in the data set on PKC (rat brain), the “% Inhibition PKC” value was 46.63%. Besides, the “% Inhibition GSK3β” value on GSK3β came to 54.14%.

Regarding `CCCCNC1CC2CC1n1c3ccccc3c3c4c(c5c6ccccc6n2c5c31)C(=O)N(Cc1ccc(OC)cc1)C4=O` (stereo not shown) [Compound 30], the “% Inhibition ERK2” value at His tagged ERK2 stood at 44.61%. Further, the “% Inhibition PKA” value in data set [1] is “NA (NA = <10% inhibition)”. Further, the “% Inhibition PKC” value in the data set on PKC (rat brain) is listed as 29.04%. In addition, the “% Inhibition GSK3β” value on GSK3β is recorded as “NA (NA = <10% inhibition)”.

Regarding `COc1ccc(CN2C(=O)c3c(c4c5ccccc5n5c4c4c3c3ccccc3n4C3CC(N(C)C)C5C3)C2=O)cc1` (stereo not shown) [Compound 31], the “% Inhibition ERK2” value at His tagged ERK2 was 42.42%. Further, the “% Inhibition PKA” value in data set [1] is given as “NA (NA = <10% inhibition)”. Also, the “% Inhibition PKC” value in the data set with PKC (rat brain) was found to be 21.91%. Also, the “% Inhibition GSK3β” value on GSK3β is on record as “NA (NA = <10% inhibition)”.

With `N#CC1(NC(=O)C(F)(F)F)CC2CC1n1c3ccccc3c3c4c(c5c6ccccc6n2c5c31)C(=O)NC4=O` (stereo not shown) [Compound 32], the “% Inhibition ERK2” value on His tagged ERK2 is reported as 44.03%. Besides, the “% Inhibition PKA” value in data set [1] worked out at 23.81%. In addition, the “% Inhibition PKC” value with PKC (rat brain) was 49.33%. At GSK3β, the “% Inhibition GSK3β” value is reported as 72.20%.

For `CCOC(=O)[C@]1(N)CC2CC1n1c3ccccc3c3c4c(c5c6ccccc6n2c5c31)C(=O)N(Cc1ccc(OC)cc1)C4=O` (stereo partly shown) [Compound 35], the inhibition at 10 µM at His tagged ERK2 was 63.8%; in data set [1], less than 10%; against GSK3β, less than 10%. In addition, the “% Inhibition PKC” value in the data set on PKC (rat brain) is 28.47%.

`COc1ccc(CN2C(=O)c3c(c4c5ccccc5n5c4c4c3c3ccccc3n4C3CC5C(N)(C(=O)O)C3)C2=O)cc1` (stereo not shown) [Compound 36]: the “% Inhibition ERK2” value at His tagged ERK2 is reported as 73.44%. Further, the “% Inhibition PKA” value in data set [1] is reported as 21.80%. Besides, the “% Inhibition PKC” value in the data set on PKC (rat brain) was found to be 65.10%. Also, the “% Inhibition GSK3β” value at GSK3β turned out to be 82.71%.

Regarding `NC1(C(=O)NCCO)CC2CC1n1c3ccccc3c3c4c(c5c6ccccc6n2c5c31)C(=O)N(CCO)C4=O` (stereo not shown) [Compound 37], the “% Inhibition ERK2” value at His tagged ERK2 is 35.09%. In addition, in data set [1], the “% Inhibition PKA” value amounted to 19.81%. Also, the “% Inhibition PKC” value in the data set with PKC (rat brain) came out at 53.92%. Besides, on GSK3β, the “% Inhibition GSK3β” value is 80.46%.

For the compound `CCNC(=O)C1(N)CC2CC1n1c3ccccc3c3c4c(c5c6ccccc6n2c5c31)C(=O)NC4=O` (stereo not shown) [Compound 41], the “% Inhibition ERK2” value at His tagged ERK2 is recorded as 72.93%. For the same compound, the “% Inhibition PKA” value in data set [1] amounted to 86.43%. For the same compound, the “% Inhibition PKC” value in the data set with PKC (rat brain) is given as 83.88%. Moreover, the “% Inhibition GSK3β” value on GSK3β is listed as 95.80%.

Turning to `Cl.NC(=O)C1(N)CC2CC1n1c3ccccc3c3c4c(c5c6ccccc6n2c5c31)C(=O)NC4=O` (stereo not shown) [NAD0241-hydrochloride salt], the “solubility limit in water containing 1% DMSO” value in data set [2] was 170 mgL^−1 and 214 mgL^−1.
